{
  "source": "paper PMC12583704",
  "about": "(Signal Transduction and Targeted Therapy, 2025)",
  "assay": "Phase 1 study NCT03594422: adverse events graded by NCI CTCAE v4.03",
  "assay_type": "in vivo, human",
  "procedure": "Part 1 was a dose-escalation study to determine the recommended phase 2 dose (RP2D) in solid tumors. […] The initial design was a 3 + 3 dose escalation from 20 mg, but the protocol was amended to randomly enroll and assign patients to starting doses of 30, 40, and 50 mg on the basis of safety data acquired in the CML trial.[20] […] An interactive web response system was used for randomization. Part 2 was a nonrandomized study focusing on patients with SDH-deficient GISTs. […] On the basis of preliminary data from adult patients, adolescent patients with advanced wild-type GISTs were also included in Part 2. The dosage for adolescents was adjusted according to their body weights.\nAEs were evaluated at each follow-up visit: on Days 1, 8, 15, and 22 during Cycles 1 and 2; and on Days 1 and 15 in Cycle 3 and all subsequent cycles, up to 30 days after the final dose. All AEs were graded according to the National Cancer Institute Common Terminology Criteria for Adverse Events v4.03. Clinical laboratory investigations for routine blood examinations and serum chemistry parameters were performed during every cycle (on Day 1), during Cycles 1 and 2 (on Days 8, 15, and 22), and 30 days after the last dose of treatment. Urinalysis, coagulation, cardiac troponin I/T, lipase, amylase, and electrocardiographic evaluations were conducted at baseline; during Cycles 1 and 2 (on Days 1 and 15); during Cycles 3, 5, 7, and 9; every three cycles after Cycle 9 (on Day 1); and 14 days after the last dose of treatment. All patients underwent tumor imaging for response assessment via computed tomography or magnetic resonance imaging at screening and every two cycles (8 weeks) until progression or discontinuation. Target and nontarget lesions were assessed per the Response Evaluation Criteria in Solid Tumors version 1.1 (RECIST v1.1).",
  "data": [
    {"smiles": "Cc1ccc(C(=O)Nc2ccc(CN3CCN(C)CC3)c(C(F)(F)F)c2)cc1C#Cc1cnc2[nH]ncc2c1", "note": "[Olverembatinib, 3-[(1H-pyrazolo[3,4-b]pyridin-5-yl)ethynyl]-4-methyl-N-{4-[(4-methylpiperazin-1-yl)methyl]-3-(trifluoromethyl)phenyl]benzamide]", "values": [
      {"measurement": "TEAE: Constipation", "setting": "40 mg (n = 32), Grade 3-5", "value": "0 n (%)"},
      {"measurement": "TEAE: Fatigue", "setting": "40 mg (n = 32), Grade 3-5", "value": "1 (3.1) n (%)"},
      {"measurement": "TEAE: Hyperuricemia", "setting": "40 mg (n = 32), Grade 3-5", "value": "0 n (%)"},
      {"measurement": "TEAE: Hypoalbuminemia", "setting": "40 mg (n = 32), Grade 3-5", "value": "0 n (%)"},
      {"measurement": "TEAE: Leukocyte count increased", "setting": "40 mg (n = 32), Grade 3-5", "value": "0 n (%)"},
      {"measurement": "TEAE: Melanocytic nevus", "setting": "40 mg (n = 32), Grade 3-5", "value": "0 n (%)"},
      {"measurement": "TEAE: Neutrophil count increased", "setting": "40 mg (n = 32), Grade 3-5", "value": "0 n (%)"},
      {"measurement": "TEAE: Pyrexia", "setting": "40 mg (n = 32), Grade 3-5", "value": "0 n (%)"},
      {"measurement": "TEAEs", "setting": "40 mg (n = 32), Grade 3-5", "value": "12 (37.5) n (%)"},
      {"measurement": "TRAE: ALT increased", "setting": "40 mg (n = 32), Grade 3-5", "value": "0 n (%)"},
      {"measurement": "TRAE: AST increased", "setting": "40 mg (n = 32), Grade 3-5", "value": "0 n (%)"},
      {"measurement": "TRAE: Anemia", "setting": "40 mg (n = 32), Grade 3-5", "value": "0 n (%)"},
      {"measurement": "TRAE: Blood creatinine increased", "setting": "40 mg (n = 32), Grade 3-5", "value": "0 n (%)"},
      {"measurement": "TRAE: Constipation", "setting": "40 mg (n = 32), Grade 3-5", "value": "0 n (%)"},
      {"measurement": "TRAE: Fatigue", "setting": "40 mg (n = 32), Grade 3-5", "value": "1 (3.1) n (%)"},
      {"measurement": "TRAE: Hypoalbuminemia", "setting": "40 mg (n = 32), Grade 3-5", "value": "0 n (%)"},
      {"measurement": "TRAE: Leukocyte count increased", "setting": "40 mg (n = 32), Grade 3-5", "value": "0 n (%)"},
      {"measurement": "TRAE: Melanocytic nevus", "setting": "40 mg (n = 32), Grade 3-5", "value": "0 n (%)"},
      {"measurement": "TRAE: Neutrophil count increased", "setting": "40 mg (n = 32), Grade 3-5", "value": "0 n (%)"},
      {"measurement": "TRAE: Platelet count increased", "setting": "40 mg (n = 32), Grade 3-5", "value": "0 n (%)"},
      {"measurement": "TRAE: Pyrexia", "setting": "40 mg (n = 32), Grade 3-5", "value": "0 n (%)"},
      {"measurement": "TEAE: Abdominal pain", "setting": "50 mg (n = 16), Any grade", "value": "3 (18.8) n (%)"},
      {"measurement": "TEAE: Alanine aminotransferase increased", "setting": "50 mg (n = 16), Any grade", "value": "6 (37.5) n (%)"},
      {"measurement": "TEAE: Anemia", "setting": "50 mg (n = 16), Any grade", "value": "8 (50.0) n (%)"},
      {"measurement": "TEAE: Aspartate aminotransferase increased", "setting": "50 mg (n = 16), Any grade", "value": "10 (62.5) n (%)"},
      {"measurement": "TEAE: C-reactive protein increased", "setting": "50 mg (n = 16), Any grade", "value": "4 (25.0) n (%)"},
      {"measurement": "TEAE: Constipation", "setting": "50 mg (n = 16), Any grade", "value": "7 (43.8) n (%)"},
      {"measurement": "TEAE: Fatigue", "setting": "50 mg (n = 16), Any grade", "value": "5 (31.3) n (%)"},
      {"measurement": "TEAE: Hyperuricemia", "setting": "50 mg (n = 16), Any grade", "value": "5 (31.3) n (%)"},
      {"measurement": "TEAE: Hypoalbuminemia", "setting": "50 mg (n = 16), Any grade", "value": "5 (31.3) n (%)"},
      {"measurement": "TEAE: Leukocyte count increased", "setting": "50 mg (n = 16), Any grade", "value": "8 (50.0) n (%)"},
      {"measurement": "TEAE: Melanocytic nevus", "setting": "50 mg (n = 16), Any grade", "value": "4 (25.0) n (%)"},
      {"measurement": "TEAE: Neutrophil count increased", "setting": "50 mg (n = 16), Any grade", "value": "6 (37.5) n (%)"},
      {"measurement": "TEAE: Pyrexia", "setting": "50 mg (n = 16), Any grade", "value": "6 (37.5) n (%)"},
      {"measurement": "TEAEs", "setting": "50 mg (n = 16), Any grade", "value": "16 (100.0) n (%)"},
      {"measurement": "TRAE: ALT increased", "setting": "50 mg (n = 16), Any grade", "value": "5 (31.3) n (%)"},
      {"measurement": "TRAE: AST increased", "setting": "50 mg (n = 16), Any grade", "value": "6 (37.5) n (%)"},
      {"measurement": "TRAE: Anemia", "setting": "50 mg (n = 16), Any grade", "value": "4 (25.0) n (%)"},
      {"measurement": "TRAE: Blood creatinine increased", "setting": "50 mg (n = 16), Any grade", "value": "1 (6.3) n (%)"},
      {"measurement": "TRAE: Constipation", "setting": "50 mg (n = 16), Any grade", "value": "5 (31.3) n (%)"},
      {"measurement": "TRAE: Fatigue", "setting": "50 mg (n = 16), Any grade", "value": "5 (31.3) n (%)"},
      {"measurement": "TRAE: Hypoalbuminemia", "setting": "50 mg (n = 16), Any grade", "value": "3 (18.8) n (%)"},
      {"measurement": "TRAE: Leukocyte count increased", "setting": "50 mg (n = 16), Any grade", "value": "8 (50.0) n (%)"},
      {"measurement": "TRAE: Melanocytic nevus", "setting": "50 mg (n = 16), Any grade", "value": "4 (25.0) n (%)"},
      {"measurement": "TRAE: Neutrophil count increased", "setting": "50 mg (n = 16), Any grade", "value": "6 (37.5) n (%)"},
      {"measurement": "TRAE: Platelet count increased", "setting": "50 mg (n = 16), Any grade", "value": "2 (12.5) n (%)"},
      {"measurement": "TRAE: Pyrexia", "setting": "50 mg (n = 16), Any grade", "value": "4 (25.0) n (%)"},
      {"measurement": "TEAE: Abdominal pain", "setting": "50 mg (n = 16), Grade 3-5", "value": "0 n (%)"},
      {"measurement": "TEAE: Alanine aminotransferase increased", "setting": "50 mg (n = 16), Grade 3-5", "value": "2 (12.5) n (%)"},
      {"measurement": "TEAE: Anemia", "setting": "50 mg (n = 16), Grade 3-5", "value": "1 (6.3) n (%)"},
      {"measurement": "TEAE: Aspartate aminotransferase increased", "setting": "50 mg (n = 16), Grade 3-5", "value": "2 (12.5) n (%)"},
      {"measurement": "TEAE: C-reactive protein increased", "setting": "50 mg (n = 16), Grade 3-5", "value": "0 n (%)"},
      {"measurement": "TEAE: Constipation", "setting": "50 mg (n = 16), Grade 3-5", "value": "0 n (%)"},
      {"measurement": "TEAE: Fatigue", "setting": "50 mg (n = 16), Grade 3-5", "value": "0 n (%)"},
      {"measurement": "TEAE: Hyperuricemia", "setting": "50 mg (n = 16), Grade 3-5", "value": "0 n (%)"},
      {"measurement": "TEAE: Hypoalbuminemia", "setting": "50 mg (n = 16), Grade 3-5", "value": "0 n (%)"},
      {"measurement": "TEAE: Leukocyte count increased", "setting": "50 mg (n = 16), Grade 3-5", "value": "0 n (%)"},
      {"measurement": "TEAE: Melanocytic nevus", "setting": "50 mg (n = 16), Grade 3-5", "value": "0 n (%)"},
      {"measurement": "TEAE: Neutrophil count increased", "setting": "50 mg (n = 16), Grade 3-5", "value": "0 n (%)"},
      {"measurement": "TEAE: Pyrexia", "setting": "50 mg (n = 16), Grade 3-5", "value": "0 n (%)"},
      {"measurement": "TEAEs", "setting": "50 mg (n = 16), Grade 3-5", "value": "9 (56.3) n (%)"},
      {"measurement": "TRAE: ALT increased", "setting": "50 mg (n = 16), Grade 3-5", "value": "1 (6.3) n (%)"},
      {"measurement": "TRAE: AST increased", "setting": "50 mg (n = 16), Grade 3-5", "value": "1 (6.3) n (%)"},
      {"measurement": "TRAE: Anemia", "setting": "50 mg (n = 16), Grade 3-5", "value": "0 n (%)"},
      {"measurement": "TRAE: Blood creatinine increased", "setting": "50 mg (n = 16), Grade 3-5", "value": "0 n (%)"},
      {"measurement": "TRAE: Constipation", "setting": "50 mg (n = 16), Grade 3-5", "value": "0 n (%)"},
      {"measurement": "TRAE: Fatigue", "setting": "50 mg (n = 16), Grade 3-5", "value": "0 n (%)"}
    ]}
  ]
}
